In US9695155B2, “Herbicidal substituted pyrimidinyloxy benzene compounds” (E. I. DU PONT DE NEMOURS AND COMPANY, priority 2013, dated 2017):

Key:
goosegrass = assay: Test C preemergence; format: in vivo, Eleusine indica; settings: for Goosegrass plant response rating: preemergence, scale 0 (no effect) to 100 (complete control); for Plant response rating, Goosegrass: Preemergence, 31 g ai/ha, scale 0 to 100, 0 no effect, 100 complete control
Description: Seeds of plant species selected from blackgrass (Alopecurus myosuroides), Italian ryegrass (Lolium multiflorum), wheat, winter (winter wheat, Triticum aestivum), galium (catchweed bedstraw, Galium aparine), corn (Zea mays), large (Lg) crabgrass (Digitaria sanguinalis), giant foxtail (Setaria faberii), johnsongrass (Sorghum halepense), lambsquarters (Chenopodium album), morningglory (Ipomoea coccinea), yellow nutsedge (Cyperus esculentus), pigweed (Amaranthus retroflexus), ragweed (common ragweed, Ambrosia elatior), soybean (Glycine max), barnyardgrass (Echinochloa crus-galli), oilseed rape (Brassica napus), waterhemp (common waterhemp, Amaranthus rudis), kochia (Kochia scoparia), wild oat (Avena fatua), surinam grass (Brachiaria decumbens), foxtail, green (green foxtail, Setaria viridis), goosegrass (Eleusine indica), bromegrass, downy (downy bromegrass, Bromus tectorum), nightshade (eastern black nightshade, Solanum ptycanthum), cocklebur (common cocklebur, Xanthium strumarium), cupgrass, woolly (woolly cupgrass, Eriochloa villosa), bermudagrass (Cynodon dactylon), sunflower, (common oilseed sunflower, Helianthus annuus), Russian thistle (Salsola kali), and velvetleaf (Abutilon theophrasti) were planted into a blend of loam soil and sand and treated preemergence with test chemicals formulated in a non-phytotoxic solvent mixture which included a surfactant.
At the same time, plants selected from these crop and weed species and also barley, winter (winter barley, Hordeum vulgare), windgrass (Apera spica-venti), chickweed (common chickweed, Stellaria media), deadnettle (henbit deadnettle, Lamium amplexicaule), and canarygrass (littleseed canarygrass, Phalaris minor) were planted in pots containing Redi-Earth® planting medium (Scotts Company, 14111 Scottslawn Road, Marysville, Ohio 43041) comprising spaghnum peat moss, vermiculite, wetting agent and starter nutrients and treated with postemergence applications of test chemicals formulated in the same manner. Plants ranged in height from 2 to 18 cm (1- to 4-leaf stage) for postemergence treatments. Treated plants and controls were maintained in a greenhouse for 13 to 15 days, after which time all species were compared to controls and visually evaluated. Plant response ratings, summarized in Table C, are based on a scale of 0 to 100 where 0 is no effect and 100 is complete control. A dash (-) response means no test result.

Russian thistle [1] = assay: Test D preemergence; format: in vivo, Salsola kali; design: key: 0 = no effect, 100 = complete control
Description: (§1) Seeds of plant species selected from bluegrass (annual bluegrass, Poa annua), blackgrass (Alopecurus myosuroides), canarygrass (littleseed canarygrass, Phalaris minor), chickweed (common chickweed, Stellaria media), galium (catchweed bedstraw, Galium aparine), bromegrass, downy (downy bromegrass, Bromus tectorum), field poppy (Papaver rhoeas), field violet (Viola arvensis), green foxtail (Setaria viridis), deadnettle (henbit deadnettle, Lamium amplexicaule), Italian ryegrass (Lolium multiflorum), kochia (Kochia scoparia), lambsquarters (Chenopodium album), oilseed rape (Brassica napus), pigweed (Amaranthus retroflexus), chamomile (scentless chamomile, Matricaria inodora), Russian thistle (Salsola kali), speedwell (bird's-eye speedwell, Veronica persica), spring barley (Hordeum vulgare), spring wheat (Triticum aestivum), wild buckwheat (Polygonum convolvulus), wild mustard (Sinapis arvensis), wild oat (Avena fatua), wild radish (Raphanus raphanistrum), windgrass (Apera spica-venti), winter barley (Hordeum vulgare), and winter wheat (Triticum aestivum) were planted into a silt loam soil and treated preemergence with test chemicals formulated in a non-phytotoxic solvent mixture which included a surfactant.
(§2) At the same time, these species were planted in pots containing Redi-Earth® planting medium (Scotts Company, 14111 Scottslawn Road, Marysville, Ohio 43041) comprising spaghnum peat moss, vermiculite, wetting agent and starter nutrients and treated with postemergence applications of the test chemicals formulated in the same manner. Plants ranged in height from 2 to 18 cm (1- to 4-leaf stage). Treated plants and controls were maintained in a controlled growth environment for 7 to 21 days after which time all species were compared to controls and visually evaluated. Plant response ratings, summarized in Table D, are based on a scale of 0 to 100 where 0 is no effect and 100 is complete control. A dash (-) response means no test result.

Russian thistle [2] = assay: Test D postemergence; format: in vivo, Salsola kali
Description: as §1, §2

smartweed = assay: Test E preemergence; format: in vivo, ladysthumb smartweed; settings: for Smartweed plant response rating: scale 0 to 100 (0 no effect, 100 complete control); for Plant response rating, Smartweed: scale 0 to 100, 0 no effect, 100 complete control
Description: Seeds of plant species selected from corn (Zea mays), soybean (Glycine max), velvetleaf (Abutilon theophrasti), lambsquarters (Chenopodium album), wild poinsettia (Euphorbia heterophylla), palmer pigweed (Amaranthus palmeri), waterhemp (common waterhemp, Amaranthus rudis), surinam grass (Brachiaria decumbens), large (Lg) crabgrass (Digitaria sanguinalis), Brazilian crabgrass (Digitaria horizontalis), fall panicum (Panicum dichotomiflorum), giant foxtail (Setaria faberii), green foxtail (Setaria viridis), goosegrass (Eleusine indica), johnsongrass (Sorghum halepense), ragweed (common ragweed, Ambrosia elatior), barnyardgrass (Echinochloa crus-galli), sandbur (southern sandbur, Cenchrus echinatus), arrowleaf sida (Sida rhombifolia), Italian ryegrass (Lolium multiflorum), dayflower (Virginia (VA) dayflower, Commelina virginica), field bindweed (Convolvulus arvensis), morningglory (Ipomoea coccinea), nightshade (eastern black nightshade, Solanum ptycanthum), kochia (Kochia scoparia), yellow nutsedge (Cyperus esculentus), cocklebur (common cocklebur, Xanthium strumarium), smartweed (ladysthumb smartweed, and hairy beggarticks (Bidens pilosa), were planted into a silt loam soil and treated preemergence with test chemicals formulated in a non-phytotoxic solvent mixture which included a surfactant.
At the same time, plants from these crop and weed species and also horseweed (Canada horseweed, Conyza canadensis), waterhemp_RES1, (ALS & Triazine resistant common waterhemp, Amaranthus rudis), and waterhemp_RES2, (ALS & HPPD resistant common waterhemp, Amaranthus rudis) were planted in pots containing Redi-Earth® planting medium (Scotts Company, 14111 Scottslawn Road, Marysville, Ohio 43041) comprising spaghnum peat moss, vermiculite, wetting agent and starter nutrients were treated with postemergence applications of test chemicals formulated in the same manner. Plants ranged in height from 2 to 18 cm for postemergence treatments (1- to 4-leaf stage). Treated plants and controls were maintained in a greenhouse for 14 to 21 days, after which time all species were compared to controls and visually evaluated. Plant response ratings, summarized in Table E, are based on a scale of 0 to 100 where 0 is no effect and 100 is complete control. A dash (-) response means no test result.

[3] = 31 g ai/ha, scale 0 (no effect) to 100 (complete control)
[4] = 31 g ai/ha, scale 0 to 100 (0 no effect, 100 complete control)
[5] = 62 g ai/ha, scale 0 to 100 (0 no effect, 100 complete control)
[6] = 125 g ai/ha, scale 0 to 100 (0 no effect, 100 complete control)
[7] = 250 g ai/ha, scale 0 to 100 (0 no effect, 100 complete control)

Row | SMILES | Goosegrass plant response rating (goosegrass; 62 g ai/ha) | Goosegrass plant response rating (goosegrass; 125 g ai/ha) | Goosegrass plant response rating (goosegrass; 250 g ai/ha) | Plant response rating, Goosegrass (goosegrass) | Plant response rating, Russian Thistle (Russian thistle [1]; [3]) | Plant response rating, Russian Thistle (Russian thistle [1]; 62 g ai/ha, scale 0-100) | Plant response rating, Russian Thistle (Russian thistle [1]; 125 g ai/ha, scale 0-100) | Plant response rating, Russian Thistle (Russian thistle [1]; 250 g ai/ha, scale 0-100) | Plant response rating, Russian Thistle (Russian thistle [2]; 16 g ai/ha, scale 0-100) | Plant response rating, Russian Thistle (Russian thistle [2]; [4]) | Plant response rating, Russian Thistle (Russian thistle [2]; [5]) | Plant response rating, Russian Thistle (Russian thistle [2]; [6]) | Plant response rating, Russian Thistle (Russian thistle [2]; [7]) | Smartweed plant response rating (smartweed; 16 g ai/ha) | Smartweed plant response rating (smartweed; 31 g ai/ha) | Smartweed plant response rating (smartweed; 62 g ai/ha) | Plant response rating, Smartweed (smartweed; 125 g ai/ha) | Plant response rating, Smartweed (smartweed; 250 g ai/ha) | Plant response rating, Russian Thistle (Russian thistle [2]; 31 g ai/ha, scale 0-100) | Plant response rating, Russian Thistle (Russian thistle [1]; 16 g ai/ha, scale 0 (no effect) to 100 (complete control))
1 | Clc1cnc(Oc2ccccc2-n2cc(Br)cn2)nc1 [Compound 7, 2-[2-(4-bromo-1H-pyrazol-1-yl)phenoxy]-5-chloropyrimidine] | 85 | 95 | 100 | 65 | 0 | 0 | 0 | 0 | 0 | 0 | 30 | 30 | 70 |  |  |  |  |  |  | 
2 | FC(F)(F)c1cnn(-c2ccccc2Oc2ncc(Cl)cn2)c1 [Compound 16] | 98 | 100 | 100 | 75 |  |  |  |  |  |  |  |  |  |  |  |  |  |  |  | 
3 | N#Cc1cccc(Oc2ncc(F)cn2)c1-n1cc(Cl)cn1 [Compound 73] |  |  |  |  |  |  |  |  |  |  |  |  |  | 0 | 0 | 20 | 98 | 98 |  | 
4 | FC(F)c1cccc(Oc2ncc(Cl)cn2)c1-n1cc(Br)cn1 [Compound 194, 2-[2-(4-bromo-1H-pyrazol-1-yl)-3-(difluoromethyl)phenoxy]-5-chloropyrimidine] |  |  |  |  |  |  |  |  |  |  |  |  |  |  | 0 | 90 |  |  |  | 
5 | FC(F)(F)c1cnn(-c2ccccc2Oc2ncc(Br)cn2)c1 [Compound 18, 5-bromo-2-[2-[4-(trifluoromethyl)-1H-pyrazol-1-yl]phenoxy]pyrimidine] | 85 | 95 | 100 | 75 | 10 | 25 | 40 | 95 | 10 | 5 | 50 | 60 | 100 |  |  |  |  |  |  | 
6 | N#Cc1cccc(Oc2ncc(Cl)cn2)c1-n1cc(-n2ccc(C(F)(F)F)n2)cn1 [Compound 284] |  |  |  |  | 0 |  | 20 | 30 |  |  | 75 | 85 | 95 |  |  |  |  |  | 65 | 
7 | Clc1cnc(Oc2ccccc2-n2cc(Cl)cn2)nc1 [Compound 3] |  |  |  |  | 0 | 30 | 40 | 40 | 0 | 10 | 10 | 10 | 20 |  |  |  |  |  |  | 0
